# What was measured:
# [1] = test system: lungs of mice subjected to hemorrhage and resuscitation; experiment: lung histology in murine hemorrhage and resuscitation model; assay type: in vivo, Balb/C mice
# Description: This example illustrates a study of Lisofylline in a murine hemorrhage and resuscitation model. Male Balb/C mice, 8-12 weeks of age, were obtained from Harlan-Sprague Dawley (Indianapolis, Ind.). The animals were kept on a 12 hour light/dark cycle with free access to food and water. With this model, 30% of the calculated blood volume (approximately 0.55 ml for a 20 gram mouse) was withdrawn from a methoxyflurane anesthetized mouse by cardiac puncture over a 60-second period. The blood was collected into a heparinized syringe (5 units heparin), kept at 37° C. for one hour, then reinfused into the mouse through a retroorbital plexus injection. Using this method, one is able to resuscitate all hemorrhaged mice without complication. The total period of methoxyflurane anesthesia is less than 2 minutes in all cases. The mortality rate with this hemorrhage protocol is approximately 12%, with all deaths occurring over the 24 hours post hemorrhage, and most deaths occurring within the one hour post hemorrhage.
# Mice were treated with 100 mg/kg Lisofylline in 0.2 ml PBS and given initially i.v., by retroorbital injection, then i.p. every 8 hours for a total of 9 doses. In hemorrhaged mice, the Lisofylline in PBS was added to the shed blood, and then given retroorbitally with the blood during the resuscitation phase. In hemorrhaged Balb/C mice (n=3), sacrificed by exsanguination 5 minutes after receiving Lisofylline with the blood used for resuscitation, serum levels of Lisofylline were 44±6 μg/ml.
# At 3 days following hemorrhage and resuscitation or the initiation of Lisofylline treatment, mice were sacrificed and the pulmonary circulation flushed with chilled PBS injected into the right ventricle, as described above. The left lower lobe of the lungs was placed into formalin. Hematoxylin and eosin sections of the lungs were prepared, and examined in a blinded fashion by a pulmonary pathologist who was unaware of the group to which the individual animal belonged. Lungs from normal, unmanipulated Balb/C mice also were included as additional controls. The histopathologic findings were scored on a 0 to 3 scale (with 0 being normal and 3 being the most severe change) for the following variables: a) neutrophil infiltration into the pulmonary interstitium; b) intraaveolar hemorrhage; and c) interstitial edema.
# Groups of 6 to 8 mice were used for each condition. For each experimental condition, the whole group of animals was prepared and then studied at the same time. Cells, mRNA, BAL supernatants, and plasma were obtained individually from eachanimal, and then were analyzed individually before calculating group data. Data are presented as mean±standard error of the mean (SEM) for each experimental group. One-way analysis of variance and the Student Newman Keuls test were used for comparisons between normal, nominal treated, hemorrhage/treated and hemorrhage data groups. A P value of less than 0.05 was considered significant.
# human neutrophils = experiment: neutrophil chemotaxis in Boyden chambers to zymosan activated serum; assay type: cell-based
# Description: Human recombinant interleukin-1α (IL-1) was obtained from Hoffmann-LaRoche, Inc. (Nutley, N.J.), frozen inaliquots and thawed daily for use. Ketamine hydrochloride was obtained from Parke-Davis (Morris Plains, N.J.), xylazine from Haver (New York, N.J.), ^125I labeled bovine serum albumin (BSA) from ICN Radiochemicals (Irvine, Calif.), and heparin sodium from Elkins-Sinn, Inc. (Cherry Hill, N.J.). All other reagents were purchased from Sigma Chemical Co. (St. Louis, Mo.). Neutrophils were purified from human blood by well described methods. Venous blood was anticoagulated with heparin and the cellular elements were separated from platelet-rich plasma by centrifugation. Cell pellets were resuspended in platelet-poor plasma and diluted 1:4 with 6% dextran (Pharmacia Fine Chemicals, Piscataway, N.J.) in saline. Red cells were separated from leukocytes by sedimentation. Leukocyte-rich supernatants were then aspirated, underlain with Ficoll-Hypaque (Pharmacia Fine Chemicals), and centrifuged at 275×g to separate neutrophils and monocytes. […]
# Each sample was run in triplicate. Unstimulated locomotion was measured using control neutrophils in Hank's Balanced Salt Solution (HBSS) in the top chamber and HBSS in the bottom chamber. Stimulated locomotion was measured using twice-washed neutrophils in HBSS in the top chamber with and without Lisofylline and zymosan-activated serum (ZAS) in the bottom chamber. […] Indices of unstimulated or stimulated locomotion were expressed as the number of neutrophils migrating through the filter in 5 random, high-power objective fields (HPF).
# Neutrophil chemotactic activity was determined by Boyden chamber assay and quantitated as the number of migrating PMN/5HPF using zymosan-activated serum (ZAS) as the chemoattractant (Repine et al., J. Reticuloendo. Soc. 24:217, 1978). Neutrophil adherence was assessed by quantitating the percentage of neutrophils adhering to nylon fibers following addition of phorbol myristate acetate (PMA 10-^6M, Sigma) (Rasp et al., J. Reticuloendo. Soc. 25:101, 1979). […]
# [2] = hemorrhaged/resuscitated mice, 100 mg/kg every 8 hours, 9 doses, 3 days, not significantly different from normal
smiles,measurement,setting,value
"C[C@@H](O)CCCCn1c(=O)c2c(ncn2C)n(C)c1=O [Lisofylline, 1-R-(5-hydroxyhexyl)-3,7-dimethylxanthine]",number of neutrophils in the pulmonary interstitium,"[1]; hemorrhaged mice treated, versus hemorrhaged/resuscitated untreated, 3 days",significantly decreased
same,degree of interstitial edema,[1]; [2],minimal
same,degree of intraaveolar hemorrhage,[1]; [2],minimal
same,number of neutrophils in the lungs,"[1]; normal mice treated, versus normal untreated",significantly increased
same,lung injury,[1]; rodent model of hemorrhage and reperfusion,completely prevented
same,Neutrophil Chemotaxis in Boyden Chambers in vitro,human neutrophils; Neutrophils + ZAS + Lisofylline 1 μM,15.0 (2)δ PMN/5HPF
same,Neutrophil Chemotaxis in Boyden Chambers in vitro,human neutrophils; Neutrophils + ZAS + Lisofylline 50 μM,11.1 (2)δ PMN/5HPF
same,stimulated human neutrophil chemotaxis,"human neutrophils; ZAS as chemoattractant, in vitro",reduced
